Measured values published in patent US7211434B2, “Primitive neural stem cells and method for differentiation of stem cells to neural cells” (priority 2000, dated 2007).

How the values were obtained:
Type in all cases: cell-based, mouse
[1] = test system: neural stem cells from the E9.5 forebrain; assay: Sphere colony formation from E9.5 forebrain neural stem cells
Method: Pregnant CD1 mice (Charles River, Quebec) of gestational age (9.5 (E9.5) or E11.5 (see below) were killed via cervical dislocation and embryos were removed as previously described (Chiasson et al., 1999; Tropepe et al., 1999). Dissected germinal zone from the E9.5 telencephalon was transferred to serum-free media and mechanically dissociated into a cell suspension with a fire-polished Pasteur pipette. Cell viability was assessed using trypan blue. Cells were plated at 10 cells/μl in 24-well (0.5 ml/well) uncoated plates (Nunclon) in serum-free media containing either FGF2 (10 ng/ml)+heparin (2 (g/ml) or FGF2+heparin+LIF (1000 U/ml). Self-renewal of neural stem cells that generated primary sphere colonies (selecting mainly floating colonies after 7 days in vitro) were routinely subcloned by mechanically dissociating a single colony in 0.2 ml of serum-free media, in identical growth factor conditions as the primary culture, and plated in uncoated 96-well (0.2 ml/well) plates (Nunclon). The number of new secondary colonies was quantified after a further 6–7 days in vitro. Neural stem cell colonies from the adult forebrain subependyma were isolated as previously described (Chiasson et al., 1999) and cultured as above.

[2] = test system: ES-derived neural sphere colony cells; assay: Subcloning of single ES-derived sphere colonies (secondary colony formation, self-renewal); conditions: subcloned single primary colonies; factor alone
Method: Self-renewal of primary colony-formin) ES cells was assessed as previously described (Tropepe et al., 1999). Single sphere colonies were isolated, mechanically dissociated into a single cell suspension in 0.2 ml of serum-free media containing various combinations of LIF (1000 U/ml), […] (10 ng/ml), heparin (2 (g/ml), EGF (20 ng/ml; Upstate Biotech) or B27 supplement (1X) and cultured in 96-well (Nunclon) plates. Secondary sphere colonies were quantified after 7–10 days. A similar procedure was used for repeated passaging experiments. Cell viability after a 7-day culture period (sphere colony assay) or after 4–24 hours (short-term ES differentiation assay) was determined using trypan blue exclusion (1:2 dilution of 0.4% trypan blue; Gibco).

[3] = test system: ES cells; assay: Primary neural sphere colony formation from ES cells in serum-free low-density culture, 7 days; conditions: for primary colony formation, factor alone: ES cells at relatively low cell densities, serum-free, 7 days in vitro
Method: For passaging ES cells, cultures were disaggregated with 0.05% trypsin dissolved in Tris-saline/EDTA for 5–10 minutes, mechanically dissociated, centrifuged and resuspended in culture medium.
Passaged ES cells were washed (2 times), centrifuged and resuspended in chemically defined serum-free media (Reynolds et al., 1992; Reynolds & Weiss, 1996) composed of a 1:1 mixture of Dulbecco's modified Eagle's medium (DMEM GIBCO) and F-12 nutrient (GIBCO) including 0.6% glucose (Sigma), 2 mM glutamine (GIBCO), 3 mM sodium bicarbonate (Sigma), and 5 mM HEPFS buffer (Sigma). A defined hormone and salt mixture (Sigma) that included insulin (25 (g/ml), transferrin (100 (g/ml), progestrone (20 nM), putrescine (60 (M), and selenium chloride (30 nM) was used instead of serum. ES cells were plated at various cell densities in 24-well culture plates (Nunclon) in the presence of either LIF (1000 U/ml), LIF+FGF2 (10 ng/ml; Upstate Biotech or Sigma) and 2 (g/ml heparin (Sigma), or in the absence of any exogenous growth factors. For short term (4–24 hours) neural differentiation, ES cells were plated in identical culture conditions in 24-well culture plates (Nunclon) that were precoated with poly-L-ornithine (15 μg/ml, Gibco).
Limiting dilution analysis was performed as previously described (Bellows and Aubin, 1989; Tropepe et al., 1999). ES cells were plated in 24-well plates containing LIF (1000 U/ml). Cell numbers were adjusted to give a starting concentration of 5000 cells/ml from which serial dilutions were made. Final cell dilutions ranged from 1000 cells per well to 1 cell per well in 0.5 ml aliquots. Cultures were left undisturbed for 7 days after which time the fraction of wells not containing sphere colonies for each cell plating density was calculated and those points were plotted against the number of cells plated per well. The number of cells required to form one sphere colony, which reflected the proportion of neural stem cells in the entire population, was then determined from the point at which the regression line crossed the 0.37 level (37%). […]

LIF: leukemia inhibitory factor, cytokine added at 1000 U/ml
E9.5 neural stem cell proliferation, LIF alone ([1]; LIF alone): not sufficient for E9.5 neural stem cell proliferation
numbers of neural stem cells forming sphere colonies, with FGF2 ([1]; LIF in the presence of FGF2, compared to FGF2 alone): can enhance the numbers of FGF-responsive neural stem cells
secondary neural stem cell colony formation [2]: not sufficient for secondary colony formation
primary colony formation, factor alone [3]: floating sphere-like colonies were generated
estimated frequency of sphere colony forming cells ([3]; limiting dilution assay in the presence of LIF (1000 U/ml)): ~0.2%

EGF: growth factor, 20 ng/ml; Upstate Biotech (NSDSECPLSHDGYCLHDGVCMYIEALDKYACNCVVGYIGERCQYRDLKWWELR; Epidermal growth factor; UniProt P01133 971-1023, looked up)
secondary neural stem cell colony formation [2]: not observed
primary colony formation, factor alone [3]: no cell colonies were generated
